In general, IC50 refers to the concentration that gives 50% inhibition. High values mean weaker potency, low ones greater potency.

Assay type in all cases: functional, cell-based
One assay concerns MG-63. Kind of assay: Cytotoxicity against human MG63 cells by MTT colorimetric method. In general terms: Formazan colour is commonly taken as a measure of viable cells.
For another assay, the system named is A549. Kind of assay: Cytotoxicity against human A549 cells by MTT colorimetric method.
The subject of another assay is LoVo. Kind of assay: Cytotoxicity against human LoVo cells by MTT colorimetric method.

Take `COc1cc(OC)c2c(c1)C(=O)[C@@H]1C[C@@H](O)C[C@@]2(O)[C@@H]1CO`: the IC50 with MG-63 was above 97400 nM; with A549, above 97.4 µM; in the assay with LoVo it was above 97400 nM.
As to `COc1cccc2c1C(=O)c1c(O)c3c(c(O)c1C2=O)C[C@@](O)(C(=O)CO)C[C@@H]3O[C@H]1C[C@H](N)[C@H](O)[C@H](C)O1` [DOXORUBICIN], the IC50 in the assay with MG-63 and in the assay with LoVo was 2700 nM in each case.

(Values after ChEMBL document CHEMBL2150860, “Herbarone, a rearranged heptaketide derivative from the sea hare associated fungus Torula herbarum” (J Nat Prod, 2012).)
